Experimental data as given in publication PMC3857490, “Discovery of a metabolic alternative to the classical mevalonate pathway” (eLife, 2013).
Each block holds one molecule with its values, some of them ahead of it.

Legend:
Assay in all cases: pyruvate kinase-lactate dehydrogenase coupled assay
[1] = target: T1, MDD from A. thaliana (Arabidopsis thaliana, UniProt O23722); format: biochemical; details: co-substrate ATP; racemic (RS)-MVAPP
T1 construct: gene MVD1; synthetic gene, thrombin-cleavable 9-His tag (pHIS9GW), E. coli BL21(DE3)
T1 sequence (O23722 1-412): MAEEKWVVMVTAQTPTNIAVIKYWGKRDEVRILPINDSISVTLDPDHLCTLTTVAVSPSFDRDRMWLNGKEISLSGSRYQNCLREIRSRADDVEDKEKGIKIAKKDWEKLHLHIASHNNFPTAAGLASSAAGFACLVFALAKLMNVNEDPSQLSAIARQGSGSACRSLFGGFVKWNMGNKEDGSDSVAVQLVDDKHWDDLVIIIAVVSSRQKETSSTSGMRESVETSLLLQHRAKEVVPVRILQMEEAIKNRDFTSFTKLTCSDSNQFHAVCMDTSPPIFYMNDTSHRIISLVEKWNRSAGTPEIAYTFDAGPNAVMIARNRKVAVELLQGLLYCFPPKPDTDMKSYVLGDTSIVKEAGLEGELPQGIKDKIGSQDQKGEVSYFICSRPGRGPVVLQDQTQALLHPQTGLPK
Text: pyruvate kinase-lactate dehydrogenase coupled assay on MDD from A. thaliana

[2] = target: T2, IPK from B. floridae (Branchiostoma floridae, UniProt A0A9J7KY69); format: biochemical; details: co-substrate ATP; Ki from the fit of the substrate's own saturation curve (substrate inhibition)
T2 construct: gene LOC118413305
T2 sequence (A0A9J7KY69 1-298): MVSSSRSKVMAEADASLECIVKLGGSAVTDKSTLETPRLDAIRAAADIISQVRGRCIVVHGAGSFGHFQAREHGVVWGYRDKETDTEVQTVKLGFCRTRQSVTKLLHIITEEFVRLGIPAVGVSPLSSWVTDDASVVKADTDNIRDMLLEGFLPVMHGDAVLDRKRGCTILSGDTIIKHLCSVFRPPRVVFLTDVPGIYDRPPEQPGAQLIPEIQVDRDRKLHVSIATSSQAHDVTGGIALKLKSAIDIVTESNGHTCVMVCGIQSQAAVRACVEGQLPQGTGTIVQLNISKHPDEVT
Text: pyruvate kinase-lactate dehydrogenase coupled assay on IPK from B. floridae

[3] = target: T3, IPK from A. thaliana (Arabidopsis thaliana, UniProt Q8H1F7); format: biochemical; details: co-substrate ATP; Ki from the fit of the substrate's own saturation curve (substrate inhibition); four IP concentrations, 2-100 µM
T3 construct: synthetic gene, thrombin-cleavable 9-His tag (pHIS9GW), E. coli BL21(DE3)
T3 sequence (Q8H1F7 1-332): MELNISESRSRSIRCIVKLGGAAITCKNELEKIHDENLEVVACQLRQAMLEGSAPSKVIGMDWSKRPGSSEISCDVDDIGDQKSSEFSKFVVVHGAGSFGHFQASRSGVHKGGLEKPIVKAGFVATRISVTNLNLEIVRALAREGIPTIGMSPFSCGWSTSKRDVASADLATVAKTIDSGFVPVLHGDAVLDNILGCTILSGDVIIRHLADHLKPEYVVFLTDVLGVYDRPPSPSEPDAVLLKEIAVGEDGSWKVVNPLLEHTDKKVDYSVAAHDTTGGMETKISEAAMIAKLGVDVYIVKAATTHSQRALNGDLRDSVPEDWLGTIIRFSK

[4] = target: T2, IPK from B. floridae; format: biochemical; details: co-substrate ATP; fit with substrate inhibition
[5] = target: T4, IPK from T. adhaerens (Trichoplax adhaerens, UniProt B3RKZ8); format: biochemical; details: co-substrate ATP; four IP concentrations, 2-100 µM
T4 construct: gene TRIADDRAFT_51825
T4 sequence (B3RKZ8 1-281): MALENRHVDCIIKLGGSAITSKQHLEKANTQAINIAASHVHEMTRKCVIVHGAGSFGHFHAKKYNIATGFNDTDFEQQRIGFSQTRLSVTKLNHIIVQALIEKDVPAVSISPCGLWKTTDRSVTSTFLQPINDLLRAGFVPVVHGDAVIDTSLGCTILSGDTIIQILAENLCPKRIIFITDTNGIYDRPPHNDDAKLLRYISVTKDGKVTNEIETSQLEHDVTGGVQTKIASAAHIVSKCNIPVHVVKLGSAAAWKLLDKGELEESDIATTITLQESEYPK

[6] = target: T5, PMK from S. solfataricus (Saccharolobus solfataricus, UniProt Q97UL6); format: biochemical; details: co-substrate ATP; Ki from the fit of the substrate's own saturation curve (substrate inhibition); racemic (RS)-MVAP
T5 construct: gene SSO2988; full length, N-terminal thrombin-cleavable 8-His tag (pET28a), E. coli BL21(DE3)
T5 sequence (Q97UL6 1-323): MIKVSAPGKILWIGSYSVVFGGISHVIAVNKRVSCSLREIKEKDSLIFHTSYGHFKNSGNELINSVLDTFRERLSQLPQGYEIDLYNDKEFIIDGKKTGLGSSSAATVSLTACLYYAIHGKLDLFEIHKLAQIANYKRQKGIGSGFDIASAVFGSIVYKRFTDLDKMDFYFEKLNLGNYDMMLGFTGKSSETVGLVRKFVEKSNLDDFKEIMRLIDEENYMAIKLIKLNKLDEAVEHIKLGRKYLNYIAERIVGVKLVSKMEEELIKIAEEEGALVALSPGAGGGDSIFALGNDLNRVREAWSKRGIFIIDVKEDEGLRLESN
Text: (§1) pyruvate kinase-lactate dehydrogenase coupled assay on PMK from S. solfataricus

[7] = substrate: CC(O)(CCOP(=O)(O)O)CC(=O)O; format: biochemical, Saccharolobus solfataricus; details: co-substrate ATP; racemic (RS)-MVAP; fit with substrate inhibition
Text: as §1

[8] = substrate: CC(O)(CCOP(=O)(O)O)CC(=O)O; format: biochemical, Roseiflexus castenholzii; details: co-substrate ATP, racemic (RS)-MVAP, below the organism's growth temperature (50 C and above)
Text: pyruvate kinase-lactate dehydrogenase coupled assay on MPD from R. castenholzii (annotated MDD)

Km [1]: 15.7 µM
Molecule: CC(O)(CCOP(=O)(O)OP(=O)(O)O)CC(=O)O (racemic) [compound 5, diphosphomevalonate]

Ki (μM) [2]: 2820 (± 1700) μM
Ki (μM) [3]: 522 (± 381) μM
Km [4]: 13.3 µM
Km [5]: 3.1 µM
Molecule: C=C(C)CCOP(=O)(O)O [compound 4, isopentenyl phosphate]

Ki (μM) [6]: 5500 (± 2200) μM
Molecule: CC(O)(CCOP(=O)(O)O)CC(=O)O (racemic) [compound 3, phosphomevalonate]

Continued, molecule first:

B1: PMK from S. solfataricus (Saccharolobus solfataricus P2) (protein)
chain: MIKVSAPGKILWIGSYSVVFGGISHVIAVNKRVSCSLREIKEKDSLIFHTSYGHFKNSGNELINSVLDTFRERLSQLPQGYEIDLYNDKEFIIDGKKTGLGSSSAATVSLTACLYYAIHGKLDLFEIHKLAQIANYKRQKGIGSGFDIASAVFGSIVYKRFTDLDKMDFYFEKLNLGNYDMMLGFTGKSSETVGLVRKFVEKSNLDDFKEIMRLIDEENYMAIKLIKLNKLDEAVEHIKLGRKYLNYIAERIVGVKLVSKMEEELIKIAEEEGALVALSPGAGGGDSIFALGNDLNRVREAWSKRGIFIIDVKEDEGLRLESN
notes: full length, N-terminal thrombin-cleavable 8-His tag (pET28a), E. coli BL21(DE3)
Km [7]: 23.1 (± 3.8) μM
kcat [7]: 1.98 ± 0.1 s⁻¹
kcat/Km [7]: 90000 ± 10000 M⁻¹ s⁻¹

B2: MPD from R. castenholzii (annotated MDD) (Roseiflexus castenholzii DSM 13941) (protein)
chain: MYHRPLERMPGLATAIPAPYADLVERMATADADLRAALRAHGLTWEEYPDLTGAARERGAAAALAYPMQGVLKYHGLSDWDYRIAFLPSVSLCNDAGHTLTLVEFDPDLATDCATINGHVARGRELERVRQSLDAIRAASGATVRARVMSRNVTRGTRMGKGLGSSAAASAALALAAIAALYGDEAAANRRLVSCMARLLAGSGCRSAAGGCSIWFSSPGMPHEDSFAVRLDDAGQLDDVRLITVPLDSRIGLKTEQAHLDAPGSALFRCWMLSRRDEALACIAAARTGDWRTLGQWAELDSMRLHGITMSGSLENKLIGWEPENIVLFRMCNDLRSSGVPVYCSTDTGPTAVFITHRDYEDAVVSAIEGLGLSLEAIRGRVAGPARLVDIAWAGGELGVAD
notes: synthetic gene, 9-His tag removed with thrombin, E. coli BL21(DE3), Mono Q and Superdex 200
Km [8]: 152 (± 38) μM
kcat [8]: 1.7 ± 0.1 s⁻¹
kcat/Km [8]: 11000 ± 3000 M⁻¹ s⁻¹
